Calls of active or inactive are those of the source. The rule behind the calls is not given here.

Assay [1] deals with Rhodesain (Trypanosoma brucei rhodesiense) (UniProt Q95PM0). The assay is described as follows: Inhibition of Trypanosoma brucei rhodesiense rhodesain using Cbz-Phe-Arg-7-amino-4-methylcoumarin assessed as substrate hydrolysis at 100 uM measured by fluorescence analysis for 10 mins.
The target in assay [2] is Cathepsin B (Homo sapiens) (UniProt P07858). The assay is described as follows: Inhibition of human cathepsin B using Cbz-Phe-Arg-AMC at 100 uM measured by fluorescence spectrophotometry.
In assay [3] the target is Procathepsin L (Homo sapiens) (UniProt P07711). Description: Inhibition of human cathepsin L using Cbz-Phe-Arg-AMC at 100 uM measured by fluorescence spectrophotometry.
Procathepsin L (Homo sapiens), sequence (P07711 114-333 limits assumed): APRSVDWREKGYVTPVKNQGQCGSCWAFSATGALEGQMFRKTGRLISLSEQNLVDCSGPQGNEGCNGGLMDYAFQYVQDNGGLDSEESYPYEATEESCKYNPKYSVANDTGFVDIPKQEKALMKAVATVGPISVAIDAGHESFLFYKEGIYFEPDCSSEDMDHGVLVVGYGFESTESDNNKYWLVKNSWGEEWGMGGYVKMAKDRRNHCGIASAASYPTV
The next assay has as its target Rhodesain (Trypanosoma brucei rhodesiense, UniProt Q95PM0). The assay is described as follows: Inhibition of Trypanosoma brucei rhodesiense rhodesain using Cbz-Phe-Arg-7-amino-4-methylcoumarin assessed as substrate hydrolysis measured by fluorescence analysis for 10 mins.
Assay [4] concerns Trypanosoma brucei brucei. Description: Antitrypanosomal activity against Trypanosoma brucei brucei TC 221 after 48 hrs by Alamar Blue assay. In kind it is functional, organism-based. Particulars: TC 221, 48 h. On the technique in general: Resazurin is reduced to fluorescent resorufin, in cell work by metabolically active cells.
The test system of assay [5] is Trypanosoma brucei brucei. The assay is described as follows: Antitrypanosomal activity against Trypanosoma brucei brucei TC 221 after 72 hrs by Alamar Blue assay. Particulars: TC 221, 72 h. In kind it is functional, organism-based.
Assay [6] in a line: Cytotoxicity against mouse J774.1 cells incubated for 24 to 48 hrs by Alamar Blue assay. In kind it is cell-based.

Rhodesain, sequence (Q95PM0 whole entry): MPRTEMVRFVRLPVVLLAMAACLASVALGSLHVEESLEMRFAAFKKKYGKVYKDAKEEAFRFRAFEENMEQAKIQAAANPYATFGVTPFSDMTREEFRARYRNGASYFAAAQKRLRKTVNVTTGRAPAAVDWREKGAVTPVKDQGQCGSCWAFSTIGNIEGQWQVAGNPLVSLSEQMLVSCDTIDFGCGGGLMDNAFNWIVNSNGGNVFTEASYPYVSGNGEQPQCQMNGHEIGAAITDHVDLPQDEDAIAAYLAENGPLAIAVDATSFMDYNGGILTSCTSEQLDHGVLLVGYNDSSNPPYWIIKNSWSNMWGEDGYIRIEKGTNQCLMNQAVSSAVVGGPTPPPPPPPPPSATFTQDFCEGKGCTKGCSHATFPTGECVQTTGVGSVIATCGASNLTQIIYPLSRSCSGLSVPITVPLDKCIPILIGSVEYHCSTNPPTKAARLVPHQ
Rhodesain (Trypanosoma brucei rhodesiense), sequence (Q95PM0 1-450): as the sequence (Q95PM0 whole entry) above

As a reminder, the inhibition is the change of the read-out against control, counted positive when it falls. In general, Ki refers to the dissociation constant of the complex between target and ligand, obtained from inhibition or displacement. In the case of `C=CCOC(=O)N[C@@H](Cc1ccccc1)C(=O)N1C[C@@H]2ON=C(Br)[C@@H]2C1`, the inhibition in assay [1] is > 40%. In addition, the inhibition result in assay [2] and in assay [3] was “inactive” each time. Besides, the Ki on Rhodesain was found to be 16.6 µM.

As to `C=CCOC(=O)N[C@@H](Cc1ccccc1)C(=O)N1C[C@@H]2C(Br)=NO[C@@H]2C1`, the inhibition in assay [1] is > 40%. The inhibition result in assay [2] and in assay [3] was “inactive” throughout. The Ki at Rhodesain was determined as 15.1 µM.

As for `C=CCOC(=O)N[C@@H](CCc1ccccc1)C(=O)N1C[C@@H]2ON=C(Br)[C@@H]2C1`, the inhibition in assay [1] is > 40%. Further, the inhibition result in assay [2] is “inactive”. Further, the Ki on Rhodesain amounted to 3.35 µM.

Turning to `C=CCOC(=O)N[C@@H](CCc1ccccc1)C(=O)N1C[C@@H]2C(Br)=NO[C@@H]2C1`, in assay [1], the inhibition is > 40%. For the same compound, the inhibition result in assay [2] was “inactive”. Further, the Ki on Rhodesain amounted to 2.73 µM.

For `C=CCOC(=O)N[C@@H](CC(C)C)C(=O)N1C[C@@H]2ON=C(Br)[C@@H]2C1`, the inhibition in assay [1] is > 40%. Besides, the inhibition entry in assay [2] and in assay [3] was “inactive” throughout. Further, on Rhodesain, the Ki was determined as 9.05 µM.

Regarding `C=CCOC(=O)N[C@@H](CC(C)C)C(=O)N1C[C@@H]2C(Br)=NO[C@@H]2C1`, the inhibition in assay [1] was > 40%. Also, the inhibition entry in assay [2] and in assay [3] was “inactive” each time. In addition, at Rhodesain, the Ki is 8.52 µM.

On to `O=C(N[C@@H](CCc1ccccc1)C(=O)N1C[C@@H]2C(Br)=NO[C@@H]2C1)OCc1ccc([N+](=O)[O-])cc1`, for which, in assay [1], the inhibition was > 40%. For the same compound, in assay [2], the inhibition entry is “inactive”. The Ki on Rhodesain was 6.81 µM.

Consider `O=C(N[C@@H](CCc1ccccc1)C(=O)N1C[C@@H]2C(Br)=NO[C@@H]2C1)OCC1CC1`, for which the inhibition in assay [1] is 15.7%. Besides, the inhibition result in assay [2] was “inactive”.

Consider `C=CCOC(=O)N[C@@H](Cc1ccccc1)C(=O)N1CC2ON=C(Br)C2C1` (mixture of isomers), for which the inhibition in assay [1] is > 40%. The inhibition result in assay [2] and in assay [3] was “inactive” in each case. For the same compound, the Ki at Rhodesain is 16.8 µM.

Usually IC50 stands for the concentration that inhibits the measured activity by half. Low readings indicate higher potency, high ones lower potency. As to `O=C(N[C@@H](Cc1ccccc1)C(=O)N1CC2ON=C(Br)C2C1)OCc1ccccc1` (mixture of isomers), in assay [1], the inhibition is > 40%. Further, the inhibition entry in assay [2] and in assay [3] was “inactive” throughout. The IC50 was 16.4 µM in assay [4], 18.2 µM in assay [5] and > 100 µM in assay [6]. On Rhodesain, the Ki was 8.41 µM.

`CC(C)(C)OC(=O)N[C@@H](Cc1ccccc1)C(=O)N1CC2ON=C(Br)C2C1` (mixture of isomers): the inhibition in assay [1] was > 40%. For the same compound, the inhibition result in assay [2] and in assay [3] was “inactive” in each case. For the same compound, the inhibition constant Ki at Rhodesain was 17.7 µM.

`C=CCOC(=O)N[C@@H](CCc1ccccc1)C(=O)N1CC2ON=C(Br)C2C1` (mixture of isomers): the inhibition in assay [1] is > 40%. For the same compound, in assay [2], the inhibition entry was “inactive”. Further, the Ki at Rhodesain was determined as 2.62 µM.

In the case of `C=CCOC(=O)N[C@@H](CC(C)C)C(=O)N1CC2ON=C(Br)C2C1` (mixture of isomers), the inhibition in assay [1] was > 40%. Also, the inhibition entry in assay [2] and in assay [3] was “inactive” each time. The Ki on Rhodesain came out at 8.36 µM.

Take `CC(C)C[C@H](NC(=O)OC(C)(C)C)C(=O)N1CC2ON=C(Br)C2C1` (mixture of isomers): the inhibition in assay [1] is > 40%. Also, the inhibition entry in assay [2] and in assay [3] was “inactive” in each case. At Rhodesain, the Ki came to 13.6 µM.

For `CC(C)(C)OC(=O)N[C@@H](CCc1ccccc1)C(=O)N1CC2ON=C(Br)C2C1` (mixture of isomers), the inhibition in assay [1] came to 5.8%. The inhibition result in assay [2] was “inactive”.

For the compound `CC(C)C[C@H](NC(=O)OCc1ccccc1)C(=O)N1CC2ON=C(Br)C2C1` (mixture of isomers), the inhibition in assay [1] is 8.3%. Besides, the inhibition entry in assay [2] is “inactive”.

With `CCCOC(=O)N[C@@H](CC(C)C)C(=O)N1CC2ON=C(Br)C2C1` (mixture of isomers), in assay [1], the inhibition is 11.3%. Moreover, the inhibition result in assay [2] and in assay [3] was “inactive” throughout.

Take `CCCOC(=O)N[C@@H](CCc1ccccc1)C(=O)N1CC2ON=C(Br)C2C1` (mixture of isomers): in assay [1], the inhibition was 15.3%. Also, the inhibition result in assay [2] is “inactive”.

With `CCCOC(=O)N[C@@H](Cc1ccccc1)C(=O)N1CC2ON=C(Br)C2C1` (mixture of isomers), the inhibition in assay [1] is 13.1%. In addition, the inhibition result in assay [2] and in assay [3] was “inactive” each time.

Regarding `O=C(N[C@@H](CCc1ccccc1)C(=O)N1CC2ON=C(Br)C2C1)OCc1ccccc1` (mixture of isomers), the inhibition result in assay [1] and in assay [2] was “inactive” throughout.

The record behind these values is ChEMBL document CHEMBL3627659, “Development of novel dipeptide-like rhodesain inhibitors containing the 3-bromoisoxazoline warhead in a constrained conformation” (Bioorg Med Chem, 2015).
